Ends that are not written are not given here.
System: L929 mouse fibroblast cells
Test: Cytotoxicity assay (MTT)
Assay type: cell-based
Settings: 24 h, up to 125 μg/ml
Method: The toxicity of P7 peptide on L929 mouse fibroblast cells was assessed by a dye reduction assay using 3-(4,5 dimethylthiazol-2-yl)-2,5-diphenyltetrazolium bromide (MTT). Briefly, 3 × 10^4 L929 cells in RPMI 1640 [supplemented with 10% (v/v) fetal bovine serum, 0.2% (w/v) sodium bicarbonate, 2 mM L-glutamine, 100 U/ml penicillin and […] streptomycin] were seeded into each well of 96-well plates and then incubated in a humidified atmosphere with 5% CO2 at 37°C for 24 h. After the incubation period, the peptide was added to obtain final concentrations of 0.98–250 μg/ml; plates were incubated at 37°C under 5% CO2 for 24 h. RPMI 1640 medium with and without cells were used as positive and negative controls, respectively. After incubation, a final concentration of 0.5 mg/ml MTT (Sigma-Aldrich, MO, United States) was added and incubated at 37°C under 5% CO2 for 4 h. Then, the supernatants were removed from each well and 150 μl of dimethyl sulfoxide (DMSO) was added and mixed thoroughly to solubilize the formazan crystals. Subsequently, absorbance was measured at 570 nm using a microplate reader. The cell viability (%) was calculated according to the formula:
%Cellviability=ODTreated-ODBlank/ODUntreated-ODBlank×100

KIAKRIWKILRR-NH2 [P7]
Cytotoxicity on L929 cells: no cytotoxicity

Source: paper PMC7838546, “A Thermostable, Modified Cathelicidin-Derived Peptide With Enhanced Membrane-Active Activity Against Salmonella enterica serovar Typhimurium” (Frontiers in Microbiology, 2021)
